# Values quoted from earlier work, collected in US20040248932A1, “Use of aryl- and heteroaryl-substituted tetrahydroisoquinolines in the treatment of chronic and neuropathic pain, migraine headaches, and urge, stress and mixed urinary incontinence” (priority 2002, published 2004).
# Conditions: nocturnal enuresis, following treatment
structure (smiles),measurement,value
"CN(C)CCCN1c2ccccc2CCc2ccccc21 [imipramine, Imipramine]",further patients in whom improvements can be seen,15-20%
same,patients in whom enuresis can be cured,over 50%
